{
  "source": "patent EP1195162A1",
  "about": "(priority 1999, dated 2000)",
  "key": {"Mycoplasma": {"system": "Mycoplasma", "assay_type": "in vivo, mice", "conditions": "vaccine intranasal 3 times at 2-week intervals, adjuvant oral at first inoculation only"}, "[1]": {"system": "anti-influenza virus IgA antibody", "experiment": "[…]; nasal irrigation liquid IgA by ELISA", "assay_type": "in vivo, BALB/c mice", "conditions": "secondary response, 50 µg/kg oral over 1-5 days, versus no adjuvant (only a low level), Figure 4"}, "rubella": {"system": "rubella", "experiment": "Measles-rubella vaccine with oral adjuvant; antibody production in the blood, rubella", "assay_type": "in vivo, mice", "conditions": "vaccine twice at 3-week intervals, adjuvant oral at first inoculation only, vaccine alone: 0.09", "method": "(§1) A measles-rubella vaccine preparation was prepared to contain virus particles of each vaccine of which amount corresponded to 7 µg in 20 µL of the preparation. 9,12,13-Trihydroxy-10E-octadecenoic acid dissolved in PBS and sterilized by filter was prepared at a concentration of 2.5 µg in 0.5 mL. A stabilizer (0.2% porcine gelatin, 0.1% sodium glutamate, 5% lactose) was added to these preparations. The resulting mixtures were dispensed into containers, which were used as measles-rubella vaccine combined vaccine-hydroxy unsaturated fatty acid nasal drop or oral preparations. Such preparations were stored at a temperature of not more than 10°C in a cool and dark place.\n(§2) The measles-rubella vaccine as prepared above was administered into mice twice at 3-week intervals, and then 9,12,13-trihydroxy-10E-octadecenoic acid was orally administered only at or around the time of the first inoculation. Then, the antibody production in the blood was evaluated."}, "measles": {"system": "measles", "experiment": "Measles-rubella vaccine with oral adjuvant; antibody production in the blood, measles", "assay_type": "in vivo, mice", "conditions": "vaccine twice at 3-week intervals, adjuvant oral at first inoculation only, vaccine alone: 0.14", "method": "as §1, §2"}, "diphtheria toxoid (DT)": {"system": "diphtheria toxoid (DT)", "design": "species or system mice", "conditions": "mouse, in vivo"}, "tetanus toxoid (TT)": {"system": "tetanus toxoid (TT)", "design": "species or system mice", "conditions": "mouse, in vivo"}, "[2]": {"system": "anti-influenza virus IgA antibody", "assay_type": "in vivo, BALB/c mice"}, "pertussis toxin (PT)": {"system": "pertussis toxin (PT)", "design": "species or system mice", "conditions": "mouse, in vivo"}, "[3]": {"system": "anti-influenza virus IgA antibody", "assay_type": "in vivo, BALB/c mice", "conditions": "50 µg/kg oral for 5 days, serum after 2 weeks, versus vaccine with aqueous solvent (only a low level), Figure 3"}, "[4]": {"system": "antibodies (IgG and IgA) specific to the adjuvant and IgE", "experiment": "Detection of antibodies specific to the adjuvant and IgE in nasal irrigation liquid (ELISA)", "assay_type": "in vivo", "conditions": "plate coated with fatty acid-BSA complex, absorbance versus control mice without administration", "method": "Subsequently, detection was carried out for the presence of antibodies (IgG and IgA) specific to the adjuvant and IgE. A linked complex between the hydroxy unsaturated-fatty acid and bovine serum albumin as a carrier protein was prepared. Each well of the 96-well EIA plate was first coated with a 100 µl aliquot of solution containing the complex (1 µg/ml). Subsequently, each well of the plate was coated with 300 µl aliquot of a blocking solution (PBS containing 5% skimmed milk) for 1 hour to avoid non-specific reactions. Then, 100 µl samples (nasal irrigation liquid) diluted to various concentrations were added into the respective wells for antigen-antibody reaction and the reaction was continued for 1 hour. The plate was then washed 3 times with PBS-0.05% Tween-20, and then 100 µl of peroxidase-conjugated anti-mouse IgG, IgA or IgE antibody (1:1000) as a secondary antibody was added thereto and the reaction was continued for one hour. After the plate was washed 3 times with PBS-Tween-20, 100 µl of a substrate solution (0.1 M citrate buffer (pH 4) containing 0.003% hydrogen peroxide and ABTS of 0.3 mg/ml) was added thereto. The plate was incubated for 15 minutes for color development. The color (O.D. at 405 nm) was assayed in a micro-plate reader."}, "[5]": {"system": "anti-influenza virus IgG antibody", "assay_type": "in vivo, BALB/c mice", "conditions": "secondary response"}, "rotavirus vaccine": {"system": "rotavirus vaccine", "experiment": "Rotavirus vaccine with oral adjuvant; antibody production in the blood", "assay_type": "in vivo, mice", "conditions": "adjuvant oral at first inoculation only", "method": "A rotavirus vaccine preparation was prepared to contain virus particles of which amount corresponded to 3.3 µg in 20 µL. The methyl ester derivative (2) (methyl 9,12,13-trihydroxy-10E-octadecenoate) as used in Example 5 was dissolved in PBS and prepared at a concentration of 10 µg in 0.5 mL. The resulting preparation was sterilized by filter and dispensed into containers, which were used as rotavirus vaccine-hydroxy unsaturated fatty acid oral preparations or nasal drops. Such preparations were stored at a temperature of not more than 10°C in a cool and dark place.\nThe rotavirus vaccine as prepared above was administered into mice twice at 3-week intervals, and then the methyl ester derivative was orally administered only at or around the time of the first inoculation. Then, the antibody production in the blood was evaluated."}},
  "note": "Like-named read-outs stand apart in the source and are kept apart here.",
  "data": [
    {"smiles": "CCCCCC(O)C(O)/C=C/C(O)CCCCCCCC(=O)O", "note": "(stereo not drawn) [9,12,13-trihydroxy-10E-octadecenoic acid]", "values": [
      {"measurement": "average number of lesions", "setting": "Mycoplasma; vaccine alone: 302", "result": 178},
      {"measurement": "mice in which lesions associated with Mycoplasma infection were found", "setting": "Mycoplasma; vaccine alone: all of 10", "result": "3 of 10"},
      {"measurement": "titer of anti-influenza virus IgA antibody in the nasal irrigation liquids", "setting": "[1]", "result": "highly elevated"},
      {"measurement": "ELISA titer of antibody produced for rubella", "setting": "rubella", "result": 0.29},
      {"measurement": "ELISA titer of antibody produced for measles", "setting": "measles", "result": 0.30},
      {"measurement": "level of anti-DT-IgA antibody", "setting": "diphtheria toxoid (DT)", "result": 11, "unit": "ELISA units"},
      {"measurement": "level of anti-DT-IgG antibody", "setting": "diphtheria toxoid (DT)", "result": 70, "unit": "ELISA units"},
      {"measurement": "level of anti-TT-IgA antibody", "setting": "tetanus toxoid (TT)", "result": 11, "unit": "ELISA units"},
      {"measurement": "level of anti-TT-IgG antibody", "setting": "tetanus toxoid (TT)", "result": 75, "unit": "ELISA units"},
      {"measurement": "adjuvant activity compared with the same dose of CTB (positive control), nasal irrigation liquid IgA", "setting": "[2]; mouse, in vivo", "result": "comparable"},
      {"measurement": "adjuvant activity compared with the same dose of CTB (positive control), serum IgA", "setting": "[2]; mouse, in vivo", "result": "comparable"},
      {"measurement": "titer of anti-influenza virus IgA antibody in the serum", "setting": "[2]; secondary response, adjuvant 1 µg per mouse oral, vaccine subcutaneous, compared with HA vaccine singly used, Figure 7", "result": "significantly increased"},
      {"measurement": "titer of anti-influenza virus IgA antibody in the nasal irrigation liquid", "setting": "[2]; secondary response, adjuvant 1 µg per mouse oral, vaccine subcutaneous, vaccine alone: only a low level, Figure 8", "result": "significantly elevated"},
      {"measurement": "level of anti-PT-IgA antibody", "setting": "pertussis toxin (PT)", "result": 14, "unit": "ELISA units"},
      {"measurement": "level of anti-PT-IgG antibody", "setting": "pertussis toxin (PT)", "result": 442, "unit": "ELISA units"},
      {"measurement": "titer of anti-influenza virus IgA antibody in the serum", "setting": "[3]", "result": "highly elevated"},
      {"measurement": "antibodies (IgG, IgA) specific to the adjuvant and IgE", "setting": "[4]", "result": "neither antibody (IgG, IgA) specific to the adjuvant nor IgE was detectable"},
      {"measurement": "titer of anti-influenza virus IgG antibody in the serum", "setting": "[5]; compared with HA vaccine singly used, Figure 5", "result": "increased"},
      {"measurement": "titer of anti-influenza virus IgG antibody in the lung irrigation liquid", "setting": "[5]; vaccine alone: only a low level, Figure 6", "result": "significantly elevated"}
    ]},
    {"smiles": "CCCCCC(O)C(O)/C=C/C(O)CCCCCCCC(=O)OC", "note": "(stereo not drawn) [methyl ester derivative, methyl 9,12,13-trihydroxy-10E-octadecenoate]", "values": [
      {"measurement": "ELISA titer of antibody produced", "setting": "rotavirus vaccine; inoculation of nasal vaccine drop twice at 3-week intervals, vaccine alone: 0.089", "result": 0.38},
      {"measurement": "ELISA titer of antibody produced", "setting": "rotavirus vaccine; vaccine inoculated orally twice at 3-week intervals, control without adjuvant: 0.018", "result": 0.27}
    ]}
  ]
}
